System: männliche Wistar-Ratten
Test: Induction of stereotypies in rats, automatic registration (method of Horowski)
Type: in vivo
Conditions: intraperitoneal, 60 minutes, n = 12
From the text: Die dopaminagonistische Wirkung wurde mit Hilfe der von Horowski beschriebenen Methode der automatischen Registrierung von Stereotypien an Ratten bestimmt (Arzneim. Forsch. 12, 2281-2286, 1978): Unmittelbar nach intraperitonealer Prüfsubstanz- bzw. Vehikelverabreichung werden männliche Wistar-Ratten (90-120 g) einzeln in Zwangskäfige aus Acrylglas gesetzt. Uber ein vor dem Kopf der Tiere angebrachtes elektrodynamisches Aufnahmesystem wird die Zahl der Kontakte an einem stählernen Becher mit einem zentralen Metallstab als Folge der stereotypen Kau-, Leck- und Nagebewegungen während 60 Minuten registriert. Die Mittelwerte ± S.E.M. der Anzahl der Kontakte während 60 Minuten für die verschiedenen Behandlungsgruppen, die mit jeweils 12 Tieren besetzt sind, werden berechnet und die Signifikanz der Unterschiede zwischen den Mittelwerten der verschiedenen Prüfsubstanzdosen im Vergleich zur Vehikel-behandelten Kontrollgruppe mit Hilfe der einfachen Varianzanalyse in Verbindung mit dem Dunnett-Test ermittelt.

[1] = Prüfsubstanzdosis 0.025 (dose unit not given)
[2] = Prüfsubstanzdosis 0.1 (dose unit not given)
[3] = Prüfsubstanzdosis 0.39 (dose unit not given)
[4] = Prüfsubstanzdosis 1.56 (dose unit not given)

Compound	Stereotypien (counts pro 60 Minuten) Mittelwert ± S.F.M.) [1]	Stereotypien (counts pro 60 Minuten) Mittelwert ± S.F.M.) [2]	Stereotypien (counts pro 60 Minuten) Mittelwert ± S.F.M.) [3]	Stereotypien (counts pro 60 Minuten) Mittelwert ± S.F.M.) [4]	Stereotypien (counts pro 60 Minuten) Mittelwert ± S.F.M.) (Prüfsubstanzdosis 6.25 (dose unit not given))
CCCN1CC(C)=C[C@@H]2c3cccc4[nH]c(C)c(c34)C[C@H]21 [CH3 / CH2CH2CH3]	4726 ± 1148xx counts pro 60 Minuten	7601 ± 1182xx counts pro 60 Minuten	9200 ± 672xx counts pro 60 Minuten	10150 ± 598xx counts pro 60 Minuten	–
CCCN1CC(C)=C[C@@H]2c3cccc4[nH]c(Cl)c(c34)C[C@H]21 [Cl / CH2CH2CH3]	2091 ± 394 counts pro 60 Minuten	6470 ± 1018xx counts pro 60 Minuten	7364 ± 927xx counts pro 60 Minuten	8837 ± 699xx counts pro 60 Minuten	10397 ± 1126xx counts pro 60 Minuten
